From US20260265316A1, “IMMUNOTHERAPEUTIC METHODS, COMPOUNDS, AND COMPOSITIONS FOR TREATING OR PREVENTING CELIAC DISEASE” (DBV Technologies, priority 2023, published 2026)

Key:
[1] = tested on: circulating gluten-specific CD4+ T cells in whole blood of HLA-DQ2+ CeD patients; experiment: Whole blood IL-2 cytokine release assay, HLA-DQ2+ CeD participants; type: cell-based, human; conditions: HLA-DQ2+ donors; whole blood, 24 hours
Description: FIGS. 10A-10B are graphs depicting the evaluation of the ability of various molarities of three gliadin polypeptides (Cv6, Av6, and 4K), two peptide mixes containing either the four individual building blocks BB1, BB2a, BB3a and BB4a (BB1-4a) or two Nexvax2 peptides (Nex01/02), and six individual building blocks or peptides (BB1, BB2a, BB3a, BB4a, Nex01, and Nex02) to restimulate gluten-specific T cell collected from HLA-DQ2+ CeD patients using a whole blood IL-2 release assay. The whole blood cytokine release assay was performed in six HLA-DQ2+ participants with biopsy-confirmed celiac disease. Whole blood was stimulated with the three gliadin polypeptide constructs Cv6, Av6, and 4K at 10, 2.5, and 0.5 μM final molarities, as indicated. Alternatively, whole blood was stimulated with a mix of peptides containing either the four building blocks BB1, BB2a, BB3a, and BB4a (BB1-4a) or Nex01 and Nex 02 (Nex01/02) at 10, 2.5, and 0.5 μM final molarities. Building blocks (BB1, BB2a, BB3a, and BB4a), Nex01, and Nex02 were also tested as individual peptides, at a single concentration of 10 μM. After 24 hours of incubation, the concentration of IL-2 was quantified from plasma using an MSD IL-2 S-plex ELISA. Data are expressed in femtogram/mL of plasma (A), or as fold change from the negative control (PBS 1×) (B). Symbols represent individual participants (patient ID); bars represent median+interquartile range of individual values.
(§1) The overarching objective of this assay was to validate that the polypeptide constructs (Cv6, Av6, and 4K) can be recognized and processed by human APCs, and they can then promote the activation of gluten-specific effector/memory CD4^+ T cells in CeD patients. A Cytokine Release Assay (CRA) was used (previously described in the literature: Anderson et al., Clinical & Experimental Immunology, 2021 June; 204(3): 321-334; and in Hardy et al., Frontiers in Immunology, 2021, Vol. 12, Article 661662, the entire contents of each of which are incorporated by reference herein). This assay quantifies IL-2 produced by circulating gluten-specific CD4^+ T cells present in the blood of CeD patients upon in vitro stimulation with gluten-derived antigens. Due to the extremely high sensitivity of this CRA, no oral exposure to gluten was required prior to blood sampling.
(§2) Informed consent was obtained from all subjects prior to blood collection.
(§3) Unfractionated blood (225 μL per well of a 96-well plate) was then rapidly restimulated for 24 hours with each of three of the polypeptide constructs provided herein (SEQ ID NO:23 wherein X is C [Cv6, i.e., SEQ ID NO:49], SEQ ID NO:23 wherein X is A [Av6, i.e., SEQ ID NO:50], and SEQ ID NO:46 [4K]) and with each of four individual building blocks (SEQ ID NO:15 wherein Z is E [BB1], SEQ ID NO:16 wherein Z is E [BB2a], SEQ ID NO:20 wherein Z is E [BB3a], and SEQ ID NO:18 wherein Z is E [BB4a]). The concentrations of the polypeptide constructs ranged from 0.5 to 10 micromolar, and the concentration for each individual building block was 10 micromolar. […] These two peptides comprise an N-terminal pyroglutamate and a C-terminal amide. Nex01 and Nex02 were the two gliadin peptides used in the Nexvax2 immunotherapeutic vaccine that was intended to restore immune tolerance to gluten in HLA-DQ2.5+ CeD patients. A positive control consisted of blood cells stimulated with phytohemagglutinin (PHA) (10 μg/mL) which activates all T cells regardless of their antigen specificity (i.e., a polyclonal activator). Negative controls consisted of cells treated with buffer only (PBS 1×).
(§4) After incubation for 24 hours at 37° C. and 5% CO2, plasma was separated from whole blood by centrifugation. Plasma was collected from each well and replicates (n=6 replicates per test) pooled. All plasma samples were frozen at −80° C. until analysis. Single plasma aliquots (100 μL) were thawed and analyzed in duplicate using MSD IL-2 S-plex according to the manufacturer's instructions.

[2] = tested on: circulating gluten-specific CD4+ T cells in whole blood of HLA-DQ8+ CeD patients; experiment: Whole blood IL-2 cytokine release assay, HLA-DQ8+ CeD participants; type: cell-based, human; conditions: HLA-DQ8+ donors; whole blood, 24 hours
Description: FIGS. 11A-11B are graphs depicting the evaluation of the ability of various molarities of three gliadin polypeptides (Cv6, Av6, and 4K), two peptide mixes containing either the four individual building blocks BB1, BB2a, BB3a and BB4a (BB1-4a) or two Nexvax2 peptides (Nex01/02), and six individual building blocks or peptides (BB1, BB2a, BB3a, BB4a, Nex01, and Nex02) to restimulate gluten-specific T cell collected from HLA-DQ8+ CeD patients using a whole blood IL-2 release assay. The whole blood cytokine release assay was performed in four HLA-DQ8+ participants with biopsy-confirmed celiac disease as described in FIG. 10. Data are expressed in femtogram/mL of plasma (A), or as fold change from the negative control (PBS 1×) (B). Symbols represent individual participants (patient ID); bars represent the median+interquartile range of individual values.
as §1, §2, §3, §4

[3] = Description: Freeze-dried aliquots of the three gliadin polypeptide constructs Cv6, Av6, and 4K, as well as the four building blocks BB1, BB2a, BB3a, and BB4a were reconstituted in pure water, loaded on a PET-Ti backing film and dried in an oven (at ~30° C.). Immediately after drying, dry deposits were reconstituted at five different molarities (approximately 1.8, 0.91, 0.45, 0.091 or 0.045 mM) by pipetting up and down with either pure water (A), PBS 1× (B), or artificial perspiration (C). The concentration in soluble material was measured by HPLC at 215 nm from the solutions recovered from PET-Ti backing films. Data are median+interquartile range of the different molarities tested. Data are expressed as the percentage of soluble material recovered, based on the expected concentration (all values above 100% were set to 100).
Immediately after drying, dry deposits were reconstituted at five different concentrations (20, 10, 5, 1 and 0.5 mg/mL) by pipetting up and down with either pure water (A), PBS 1× (B), or artificial perspiration (C). The concentration in soluble material was measured by HPLC at 215 nm from the solutions recovered from PET-Ti backing films. Data are presented as median+interquartile range of the different molarities tested. Data are expressed as the percentage of soluble material recovered, based on the expected concentration (all values above 100% were set to 100). (D) As an illustration, photographs of the reconstitution of dry deposits with pure water are shown and annotated.
Immediately after drying, deposits were reconstituted by pipetting up and down with each of pure water, PBS 1× at pH 7.0, and artificial perspiration at pH 4.5, each at five different molarities (approximately 1.8, 0.91, 0.45, 0.091, and 0.045 mM). The concentration in soluble material was measured by HPLC at 215 nm.
Immediately after drying, patch deposits were reconstituted by pipetting up and down with each of pure water, PBS 1× at pH 7.0, and artificial perspiration at pH 4.5, at five different concentrations (20, 10, 5, 1, and 0.5 mg/mL). The concentration in soluble material was measured by HPLC at 215 nm.

Substance	IL-2 response (in words) [1]	IL-2 response (in words) [2]	median percentage of soluble material recovered from the patch backing film [3]
H-PQQPFPQPEQPFPWQPQ-NH2 [BB3a]	potent IL-2 responses	no or low responses	93-100%
Ac-QLQPFPQPELPYPQPELPYPQPELPYPQPQP-NH2 [BB1]	potent IL-2 responses	no or low responses	93-100%
